In ChEMBL document CHEMBL3779887, “Robenidine Analogues as Gram-Positive Antibacterial Agents” (J Med Chem, 2016):
Converted amounts (≈) assume the structure as drawn. The source made the active and inactive calls. The rule behind the calls is not given here.

Columns and labels:
[1] = Cytotoxicity against human HepG2 cells after 24 hrs by WST-1 based colorimetric assay; type: cell-based
[2] = test system: Staphylococcus aureus; experiment: Antibacterial activity against methicillin-resistant Staphylococcus aureus after 20 to 24 hrs; type: functional
[3] = test system: Enterococcus; experiment: Antibacterial activity against vancomycin-resistant Enterococcus after 20 to 24 hrs; type: functional
[4] = test system: Escherichia coli; experiment: Antibacterial activity against Escherichia coli ATCC 25922 after 20 to 24 hrs; type: functional
[5] = test system: Pseudomonas aeruginosa; experiment: Antibacterial activity against Pseudomonas aeruginosa ATCC 27853 after 20 to 24 hrs; type: functional
[6] = test system: Staphylococcus aureus; experiment: Antibacterial activity against methicillin-resistant Staphylococcus aureus clinical isolate after 20 to 24 hrs; type: functional
[7] = test system: Staphylococcus aureus; experiment: Antibacterial activity against Staphylococcus aureus ATCC 29213 after 20 to 24 hrs in presence of 2% heat inactivated bovine serum; type: functional
[8] = test system: Staphylococcus aureus; experiment: Bactericidal activity against methicillin-resistant Staphylococcus aureus clinical isolate after 24 and 48 hrs; type: functional
[9] = test system: Escherichia coli; experiment: Antibacterial activity against Escherichia coli ATCC 25922 after 20 to 24 hrs in presence of polymyxin B nonapeptide; type: functional
[10] = test system: Pseudomonas aeruginosa; experiment: Antibacterial activity against Pseudomonas aeruginosa ATCC 27853 after 20 to 24 hrs in presence of polymyxin B nonapeptide; type: functional
[11] = test system: Escherichia coli; experiment: Ratio of MIC90 for Escherichia coli ATCC 25922 to MIC90 for Escherichia coli ATCC 25922 in presence of polymyxin B nonapeptide; type: functional
[12] = test system: Pseudomonas aeruginosa; experiment: Ratio of MIC90 for Pseudomonas aeruginosa ATCC 27853 to MIC90 for Pseudomonas aeruginosa ATCC 27853 in presence of polymyxin B nonapeptide; type: functional
[13] = test system: Staphylococcus aureus; experiment: Bactericidal activity against methicillin-sensitive Staphylococcus aureus ATCC 29213 assessed as log reduction in bacterial cell number at MIC after 8 hrs by time-kill curve analysis; type: functional
[14] = test system: Staphylococcus aureus; experiment: Bactericidal activity against methicillin-sensitive Staphylococcus aureus ATCC 29213 assessed as log reduction in bacterial cell number at 2 times MIC after 8 hrs by time-kill curve analysis; type: functional
[15] = test system: Staphylococcus aureus; experiment: Bactericidal activity against methicillin-sensitive Staphylococcus aureus ATCC 29213 assessed as log reduction in bacterial cell number at 4 times MIC after 8 hrs by time-kill curve analysis; type: functional
[16] = test system: Staphylococcus aureus; experiment: Bactericidal activity against methicillin-sensitive Staphylococcus aureus ATCC 29213 assessed as log reduction in bacterial cell number at 8 times MIC after 8 hrs by time-kill curve analysis; type: functional
[17] = test system: Staphylococcus aureus; experiment: Bactericidal activity against methicillin-sensitive Staphylococcus aureus clinical isolate USA300 assessed as log reduction in bacterial cell number at MIC after 8 hrs by time-kill curve analysis; type: functional
[18] = test system: Staphylococcus aureus; experiment: Bactericidal activity against […] Staphylococcus aureus clinical isolate USA300 assessed as log reduction in bacterial cell number at 2 times MIC after 8 hrs by time-kill curve analysis; type: functional
[19] = test system: Staphylococcus aureus; experiment: Bactericidal activity against […] Staphylococcus aureus clinical isolate USA300 assessed as log reduction in bacterial cell number at 4 times MIC after 8 hrs by time-kill curve analysis; type: functional
[20] = test system: Staphylococcus aureus; experiment: Bactericidal activity against […] Staphylococcus aureus clinical isolate USA300 assessed as log reduction in bacterial cell number at 8 times MIC after 8 hrs by time-kill curve analysis; type: functional
[21] = test system: Staphylococcus aureus; experiment: Bactericidal activity against Methicillin-sensitive Staphylococcus aureus ATCC 29213 assessed as log reduction in bacterial cell number at 2 times MIC after 24 hrs by time kill curve analysis; type: functional, organism-based
[22] = test system: Staphylococcus aureus; experiment: Bactericidal activity against Methicillin-sensitive Staphylococcus aureus ATCC 29213 assessed as log reduction in bacterial cell number at 4 times MIC after 24 hrs by time kill curve analysis; type: functional, organism-based
[23] = test system: Staphylococcus aureus; experiment: Bactericidal activity against Methicillin-sensitive Staphylococcus aureus ATCC 29213 assessed as log reduction in bacterial cell number at 8 times MIC after 24 hrs by time-kill curve analysis; type: functional, organism-based
[24] = test system: Staphylococcus aureus; experiment: Bactericidal activity against […] Staphylococcus aureus clinical isolate USA300 assessed as log reduction in bacterial cell number at MIC after 24 hrs by time-kill curve analysis; type: functional, organism-based
[25] = test system: Staphylococcus aureus; experiment: Bactericidal activity against […] Staphylococcus aureus clinical isolate USA300 assessed as log reduction in bacterial cell number at 2 times MIC after 24 hrs by time-kill curve analysis; type: functional, organism-based
[26] = test system: Staphylococcus aureus; experiment: Bactericidal activity against […] Staphylococcus aureus clinical isolate USA300 assessed as log reduction in bacterial cell number at 4 times MIC after 24 hrs by time-kill curve analysis; type: functional, organism-based
[27] = test system: Staphylococcus aureus; experiment: Bactericidal activity against […] Staphylococcus aureus clinical isolate USA300 assessed as log reduction in bacterial cell number at 8 times MIC after 24 hrs by time-kill curve analysis; type: functional, organism-based
[28] = Toxicity in sheep erythrocytes assessed as hemolysis at 600 uM after 30 mins; type: cell-based, Ovis aries; details: erythrocyte, 0.5 h
[29] = Cytotoxicity against human HEL299 cells after 24 hrs by WST-1 based colorimetric assay; type: cell-based, HEL 299
[30] = Selectivity index, ratio of GI50 for human HEL299 cells to MIC50 for methicillin-sensitive Staphylococcus aureus clinical isolate; type: functional, HEL 299
[31] = Selectivity index, ratio of GI50 for human HEL299 cells to MIC50 for methicillin-resistant Staphylococcus aureus clinical isolate; type: functional, HEL 299
[32] = Selectivity index, ratio of GI50 for human HepG2 cells to MIC50 for methicillin-sensitive Staphylococcus aureus clinical isolate; type: functional
[33] = Selectivity index, ratio of GI50 for human HepG2 cells to MIC50 for methicillin-resistant Staphylococcus aureus clinical isolate; type: functional
[34] = test system: Staphylococcus aureus; experiment: Antibacterial activity against methicillin-sensitive Staphylococcus aureus ATCC 25923 after 20 to 24 hrs; type: functional
[35] = test system: Staphylococcus aureus; experiment: Antibacterial activity against methicillin-sensitive Staphylococcus aureus ATCC 6538 after 20 to 24 hrs; type: functional
[36] = test system: Staphylococcus aureus; experiment: Antibacterial activity against methicillin-sensitive Staphylococcus aureus ATCC 49775 after 20 to 24 hrs; type: functional
[37] = test system: Staphylococcus aureus; experiment: Antibacterial activity against methicillin-sensitive Staphylococcus aureus ATCC 29213 after 20 to 24 hrs; type: functional
[38] = test system: Staphylococcus aureus; experiment: Antibacterial activity against methicillin-sensitive Staphylococcus aureus ATCC 6538 after 20 to 24 hrs in presence of 50% heat inactivated bovine serum; type: functional
[39] = test system: Staphylococcus aureus; experiment: Antibacterial activity against methicillin-sensitive Staphylococcus aureus ATCC 49775 after 20 to 24 hrs in presence of 50% heat inactivated bovine serum; type: functional
[40] = test system: Staphylococcus aureus; experiment: Antibacterial activity against methicillin-sensitive Staphylococcus aureus ATCC 29213 after 20 to 24 hrs in presence of 50% heat inactivated bovine serum; type: functional
[41] = test system: Staphylococcus aureus; experiment: Bactericidal activity against methicillin-sensitive Staphylococcus aureus ATCC 25923 after 24 and 48 hrs; type: functional
[42] = test system: Staphylococcus aureus; experiment: Bactericidal activity against methicillin-sensitive Staphylococcus aureus ATCC 6538 after 24 and 48 hrs; type: functional
[43] = test system: Staphylococcus aureus; experiment: Bactericidal activity against methicillin-sensitive Staphylococcus aureus ATCC 49775 after 24 and 48 hrs; type: functional
[44] = test system: Staphylococcus aureus; experiment: Bactericidal activity against methicillin-sensitive Staphylococcus aureus ATCC 29213 after 24 and 48 hrs; type: functional
[45] = test system: Staphylococcus aureus; experiment: Ratio of MBC for methicillin-sensitive Staphylococcus aureus ATCC 25923 to MIC90 for methicillin-sensitive Staphylococcus aureus ATCC 25923; type: functional
[46] = test system: Staphylococcus aureus; experiment: Ratio of MBC for methicillin-sensitive Staphylococcus aureus ATCC 6538 to MIC90 for methicillin-sensitive Staphylococcus aureus ATCC 6538; type: functional
[47] = test system: Staphylococcus aureus; experiment: Ratio of MBC for methicillin-sensitive Staphylococcus aureus ATCC 49775 to MIC90 for methicillin-sensitive Staphylococcus aureus ATCC 49775; type: functional
[48] = test system: Staphylococcus aureus; experiment: Ratio of MBC for methicillin-sensitive Staphylococcus aureus ATCC 29213 to MIC90 for methicillin-sensitive Staphylococcus aureus ATCC 29213; type: functional
[49] = test system: Staphylococcus aureus; experiment: Antibacterial activity against methicillin-sensitive Staphylococcus aureus ATCC 29213 after 20 to 24 hrs in presence of 50% heat inactivated bovine serum
[50] = test system: Staphylococcus aureus; experiment: as above; remark: listed apart in the source
[51] = test system: Staphylococcus aureus; experiment: Bactericidal activity against Methicillin-sensitive Staphylococcus aureus ATCC 29213 assessed as log reduction in bacterial cell number at MIC after 8 hrs by time kill curve analysis
[52] = Lipophilicity, logD of the compound at pH 3; type: physicochemical; details: buffer
[53] = Lipophilicity, logD of the compound at pH 7.4; type: physicochemical; details: buffer
[54] = Solubility of the compound at pH 2; type: physicochemical; details: buffer
[55] = Solubility of the compound at pH 6.5; type: physicochemical; details: buffer
[56] = Half life of compound in human liver microsomes; type: ADME
[57] = Half life of compound in mouse liver microsomes; type: ADME
[58] = Intrinsic clearance in human liver microsomes assessed per mg of protein; type: ADME; details: read-out: CLH
[59] = Intrinsic clearance in mouse liver microsomes assessed per mg of protein; type: ADME; details: read-out: CLH
[60] = Metabolic stability in human liver microsomes assessed as compound loss after 60 mins; type: ADME; details: read-out: Drug degradation

## C/C(=N\NC(=N)N/N=C(\C)c1ccc(Cl)cc1)c1ccc(Cl)cc1
[1]
  GI50 at 24 h: 13.8 µM
[2]
  MIC: 7.5 µM (≈ 2.72 µg/mL)
[3]
  MIC: 3.8 µM (≈ 1.38 µg/mL)
[4]
  MIC90: > 250 µM
[5]
  MIC90: > 250 µM
[6]
  MIC90: 1.3 µM (≈ 0.471 µg/mL)
[7]
  MIC90: 10 µM
[8]
  MBC: 2.5 µM (≈ 0.906 µg/mL)
[9]
  MIC90: 10 µM
[10]
  MIC90: 5 µM
[11]
  Ratio: 10
[12]
  Ratio: 10
[13]
  Activity: >=4 log10CFU/ml
[14]
  Activity: >=4 log10CFU/ml
[15]
  Activity: >=4 log10CFU/ml
[16]
  Activity: >=4 log10CFU/ml
[17]
  Activity: >=4 log10CFU/ml
[18]
  Activity: >=4 log10CFU/ml
[19]
  Activity: >=4 log10CFU/ml
[20]
  Activity: >=4 log10CFU/ml
[21]
  Activity: inactive
[22]
  Activity: inactive
[23]
  Activity: inactive
[24]
  Activity: inactive
[25]
  Activity: inactive
[26]
  Activity: inactive
[27]
  Activity: inactive
[28]
  Activity: Non-toxic
[29]
  GI50 at 24 h: 6.7 µM
[30]
  Selectivity Index: 2
[31]
  Selectivity Index: 2
[32]
  Selectivity Index: 2
[33]
  Selectivity Index: 2
[34]
  MIC90: 1.3 µM (≈ 0.471 µg/mL)
[35]
  MIC90: 1.3 µM (≈ 0.471 µg/mL)
[36]
  MIC90: 1.3 µM (≈ 0.471 µg/mL)
[37]
  MIC90: 1.3 µM (≈ 0.471 µg/mL)
[38]
  MIC90: > 250 µM
[39]
  MIC90: > 250 µM
[40]
  MIC90: > 250 µM
[41]
  MBC: 2.5 µM (≈ 0.906 µg/mL)
[42]
  MBC: 2.5 µM (≈ 0.906 µg/mL)
[43]
  MBC: 2.5 µM (≈ 0.906 µg/mL)
[44]
  MBC: 2.5 µM (≈ 0.906 µg/mL)
[45]
  Ratio: 1
[46]
  Ratio: 1
[47]
  Ratio: 1
[48]
  Ratio: 1
[49]
  MIC90: > 250 µM
[50]
  MIC90: > 250 µM
[51]
  Activity: inactive

## N=C(N/N=C(\CO)c1ccc(Cl)cc1)N/N=C(\CO)c1ccc(Cl)cc1
[2]
  MIC: 20.3 µM (≈ 8 µg/mL)
[3]
  MIC: 15.2 µM (≈ 5.99 µg/mL)
[4]
  Activity: inactive
[52]
  logD: 3.2
[53]
  logD: 4
[54]
  solubility: 25 µg/mL (≈ 63.4 µM)
[55]
  solubility: < 1.6 µg/mL
[56]
  half-life: > 4.12 h
[57]
  half-life: 2.18 h
[58]
  microsomal CLint: < 7 µL/min/mg
[59]
  microsomal CLint: 13 µL/min/mg
[60]
  metabolised at 1 h: < 15%
